From US20250214999A1, “HETEROCYCLIC GLP-1 AGONISTS” (Gasherbrum Bio, Inc., priority 2020, published 2025)

Experiments:
[1] = Nonhuman primate (NHP) pharmacokinetics (PK) study; assay type: in vivo, cynomolgus monkey; conditions: male NHP
Protocol: Pharmacokinetics (PK) study was conducted on male NHP (e.g. cynomolgus monkey) by two delivery routes intravenous (IV) and/or oral gavage (PO). NHP in IV route (n=3) were free access to food and water. NHP in PO route (n=3) were fasted overnight and fed at 4 hrs post dosing. Test article was formulated in solution for IV route and solution or suspension for PO route, respectively.
On the day of experiment, test article was administered via vein (e.g. cephalic vein) injection (commonly at 0.2 to 1 mg/kg and 1 to 2 mL/kg) for IV route or via oral gavage (commonly at 1 to 100 mg/kg and 2 to 10 mL/kg) for PO route, respectively.
Blood samples were collected via serial bleeding at ˜8 time points from 0.083 to 24 hours post dose. Approximate 500 μL of blood/time point was collected into EDTA-K2 tube via cephalic or saphenous vein. Blood samples were put on wet ice and centrifuged to obtain plasma samples and plasma samples were submitted to LCMS/MS for sample analysis.
Pharmacokinetics parameters, including maximum plasma concentration (Cmax), time to reach maximum plasma concentration (Tmax), area under the curve (AUC0-4) and oral bioavailability (F%), etc., were calculated by non-compartmental model using WinNonlin.
Exemplary compounds of Formula I (e.g., certain compounds of Formula IB (e.g., Formula IB-1)) were tested using the protocol above. Reference compound REF1 was tested as a control compound.

GLP-1 Receptor = GLP-1 Receptor (Homo sapiens (Human), UniProt P43220); experiment: GLP-1R agonist cAMP stimulation assay (HEK293/GLP1R/CRE-LUC cells); assay type: cell-based; conditions: 30 min incubation, read-out: GLP1R cAMP Stimulation DR: EC50
GLP-1 Receptor, sequence (P43220 24-463): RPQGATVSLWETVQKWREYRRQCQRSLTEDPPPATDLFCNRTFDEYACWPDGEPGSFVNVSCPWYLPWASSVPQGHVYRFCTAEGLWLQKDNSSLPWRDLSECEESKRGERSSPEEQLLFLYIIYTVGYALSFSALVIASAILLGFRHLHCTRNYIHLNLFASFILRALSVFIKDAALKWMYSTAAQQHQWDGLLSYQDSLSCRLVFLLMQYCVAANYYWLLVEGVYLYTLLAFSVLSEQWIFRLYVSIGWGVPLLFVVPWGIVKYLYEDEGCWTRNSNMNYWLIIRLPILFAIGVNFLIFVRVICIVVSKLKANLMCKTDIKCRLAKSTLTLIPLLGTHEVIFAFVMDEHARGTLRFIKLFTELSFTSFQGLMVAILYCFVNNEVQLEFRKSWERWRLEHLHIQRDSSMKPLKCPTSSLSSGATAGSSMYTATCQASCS
Protocol: Activation of GLP-1 receptor is known to stimulate cyclic AMP (cAMP) production in cells which indicates primary coupling to the Gαs subunit of the G protein heterotrimeric complex.
To optimize functional activity directed toward Gαs coupling, a HEK293/CRELuc cell line developed by HDB stably expressing the GLP-1 Receptor was used. 200× concentration of compound working solutions were prepared (Agilent Technologies Bravo) with 1/2 log serial dilution in 384-well Echo LDV plate (Labcyte, Cat #LP-0200). 50 nL/well 200× concentration of compound working solutions were moved to 384-well white low volume plate (Greiner, Cat #784075) using Labcyte ECHO550. 1×10^5 cells/mL HEK293/GLP1R/CRE-LUC (HD Biosciences) cell suspensions prepared with assay buffer [DPBS containing 0.5 mM IBMX (Sigma,Cat #I5879) and 0.1% BSA (GENVIEW, Cat #FA016-100 g)], 10 uL cell suspensions were added to each well of previous generated assay plate which already contains 50 nl compound at 200× concentration using ThermoFisher Multidrop Combi (1000cells/well). Seal the plate and incubate at 37° C. with 5% CO2 for 30 min.
After incubation the CAMP assay signal was generated using cAMP dynamic 2 Kit (Cisbio). 5 μL cAMP-d2 working solution was added to each well, followed with 5 μL Anti-cAMP antibody-cryptate working solution added to each well using ThermoFisher Multidrop Combi. Incubate at room temperature for 1 hour protected from light. Read the fluorescence at 665 and 615 nm with Reader PerkinElmer En Vision.

| EC50 (GLP-1 Receptor) [nM] | Structure (SMILES) | also measured |
| --- | --- | --- |
| 20 to 200 | O=C(O)c1ccc2nc(CN3CCC(c4cccc5c4OCC(c4ccccc4F)C5)CC3)n(C[C@@H]3CCO3)c2n1 (stereo partly drawn) [Compound 122a, 2-((4-(3-(2-fluorophenyl) Chroman-8-yl)piperidin-1-yl)methyl)-3-(((S)-oxetan-2-yl)methyl)-3H-imidazo[4,5-b]pyridine-5-carboxylic acid] | – |
| 0.2 to 20 | O=C(O)c1ccc2nc(CN3CCC(c4cccc5c4OC[C@@H](c4ccc(Cl)cc4F)O5)CC3)n(C[C@@H]3CCO3)c2n1 [Compound 104b, 2-((4-((R)-2-(4-chloro-2-fluorophenyl)-2,3-dihydrobenzo[b][1,4]dioxin-5-yl)piperidin-1-yl)methyl)-3-(((S)-oxetan-2-yl)methyl)-3H-imidazo[4,5-b]pyridine-5-carboxylic acid] | – |
| 0.2 to 20 | CC1(c2ccc(Cl)cc2)COc2c(cccc2C2CCN(Cc3nc4ccc(C(=O)O)nc4n3C[C@@H]3CCO3)CC2)O1 (stereo partly drawn) [Compound 128a, 2-((4-(2-(4-chlorophenyl)-2-methyl-2,3-dihydrobenzo[b][1,4]dioxin-5-yl)piperidin-1-yl)methyl)-3-((S)-oxetan-2-ylmethyl)-3H-imidazo[4,5-b]pyridine-5-carboxylic acid] | – |
| ≤ 0.2 | N#Cc1ccc(C2COc3c(cccc3C3CCN(Cc4nc5ccc(C(=O)O)nc5n4C[C@@H]4CCO4)CC3)O2)cc1 (stereo partly drawn) [Compound 118a, 2-((4-(2-(4-cyanophenyl)-2,3-dihydrobenzo[b][1,4]dioxin-5-yl)piperidin-1-yl)methyl)-3-(((S)-oxetan-2-yl)methyl)-3H-imidazo[4,5-b]pyridine-5-carboxylic acid] | – |
| ≤ 0.2 | O=C(O)c1ccc2nc(CN3CCC(c4cccc5c4OCC(c4ccc(Cl)cc4)O5)CC3)n(C[C@@H]3CCO3)c2n1 (stereo partly drawn) [Compound 111a, 2-((4-(2-(4-chlorophenyl)-2,3-dihydrobenzo[b][1,4]dioxin-5-yl)piperidin-1-yl)methyl)-3-(((S)-oxetan-2-yl)methyl)-3H-imidazo[4,5-b]pyridine-5-carboxylic acid] | – |
| ≤ 0.2 | O=C(O)c1ccc2nc(CN3CCC(c4cccc5c4OCC(c4ccc(Cl)cc4)O5)CC3)n(C[C@@H]3CCO3)c2c1 (stereo partly drawn) [Compound 115a, 2-((4-(2-(4-chlorophenyl)-2,3-dihydrobenzo[b][1,4]dioxin-5-yl)piperidin-1-yl)methyl)-1-(((S)-oxetan-2-yl)methyl)-1H-benzo[d]imidazole-6-carboxylic acid] | – |
| ≤ 0.2 | N#Cc1ccc([C@@H]2COc3c(cccc3C3CCN(Cc4nc5ccc(C(=O)O)nc5n4C[C@@H]4CCO4)CC3)O2)cc1 [Compound 118b, 2-((4-((R)-2-(4-cyanophenyl)-2,3-dihydrobenzo[b][1,4]dioxin-5-yl)piperidin-1-yl)methyl)-3-(((S)-oxetan-2-yl)methyl)-3H-imidazo[4,5-b]pyridine-5-carboxylic acid] | – |
| 20 to 200 | O=C(O)c1ccc2nc(CN3CCC(c4cccc5c4OC[C@H](c4ccc(Cl)cc4)O5)CC3)n(C[C@@H]3CCO3)c2n1 [Compound 111c, 2-((4-((S)-2-(4-chlorophenyl)-2,3-dihydrobenzo[b][1,4]dioxin-5-yl)piperidin-1-yl)methyl)-3-(((S)-oxetan-2-yl)methyl)-3H-imidazo[4,5-b]pyridine-5-carboxylic acid] | – |

Further lines, the molecule ahead of its results:

| Structure (SMILES) | EC50 (GLP-1 Receptor) [nM] | also measured |
| --- | --- | --- |
| N#Cc1ccc(COc2cccc(C3CCN(Cc4nc5ccc(C(=O)O)cc5n4C[C@@H]4CCO4)CC3)n2)c(F)c1 [REF1] | – | Tmax ([1]; cynomolgus monkey, plasma, 1 mg/kg, oral (PO), Dose 1): 5.33 h; bioavailability ([1]; cynomolgus monkey, plasma, oral bioavailability): 3.14%; AUC0-24 h ([1]; oral (PO), Dose 1): 362 arbitrary unit; Cmax ([1]; oral (PO), Dose 1): 36.0 arbitrary unit |
| O=C(O)c1ccc2nc(CN3CCC(c4cccc5c4OC[C@H](c4ccc(Cl)cc4F)O5)CC3)n(C[C@@H]3CCO3)c2c1 [Compound 120c, 2-((4-((S)-2-(4-chloro-2-fluorophenyl)-2,3-dihydrobenzo[b][1,4]dioxin-5-yl)piperidin-1-yl)methyl)-1-((S)-oxetan-2-ylmethyl)-1H-benzo[d]imidazole-6-carboxylic acid] | 20 to 200 | – |
| C[C@H]1CN(c2cccc3c2OCC(c2ccc(Cl)cc2)O3)CCN1Cc1nc2ccc(C(=O)O)nc2n1C[C@@H]1CCO1 (stereo partly drawn) [Compound 114a, 2-(((2S)-4-(2-(4-chlorophenyl)-2,3-dihydrobenzo[b][1,4]dioxin-5-yl)-2-methylpiperazin-1-yl)methyl)-3-(((S)-oxetan-2-yl)methyl)-3H-imidazo[4,5-b]pyridine-5-carboxylic acid] | 0.2 to 20 | – |
| O=C(O)c1ccc2nc(CN3CCC(c4cccc5c4OCC(c4ccccc4F)N5)CC3)n(C[C@@H]3CCO3)c2n1 (stereo partly drawn) [Compound 125a, 2-((4-(3-(2-fluorophenyl)-3,4-dihydro-2H-benzo[b][1,4]oxazin-8-yl)piperidin-1-yl)methyl)-3-(((S)-oxetan-2-yl)methyl)-3H-imidazo[4,5-b]pyridine-5-carboxylic acid] | 20 to 200 | – |
| O=C(O)c1ccc2nc(CN3CCC(c4cccc5c4OC[C@@H](c4ccc(Cl)cc4F)O5)CC3)n(C[C@@H]3CCO3)c2c1 [Compound 120b, 2-((4-((R)-2-(4-chloro-2-fluorophenyl)-2,3-dihydrobenzo[b][1,4]dioxin-5-yl)piperidin-1-yl)methyl)-1-((S)-oxetan-2-ylmethyl)-1H-benzo[d]imidazole-6-carboxylic acid] | 0.2 to 20 | – |
| O=C(O)c1ccc2nc(Cc3ccc(-c4cccc5c4OCC(c4ccc(Cl)cc4F)O5)cc3)n(C[C@@H]3CCO3)c2n1 (stereo in doubt) [Compound 107a, 2-[[4-[2-(4-chloro-2-fluoro-phenyl)-2,3-dihydro-1,4-benzodioxin-5-yl]phenyl]methyl]-3-(oxetan-2-ylmethyl)imidazo[4,5-b]pyridine-5-carboxylic acid] | 20 to 200 | – |
